{"source": "patent US20230405003A1", "about": "“APPLICATION OF THYMIDINE DERIVATIVE IN PREPARATION OF DRUGS” (ONQUALITY PHARMACEUTICALS CHINA LTD., priority 2020, published 2023)", "key": {"[1]": {"test_system": "hand-foot syndrome caused by capecitabine in SD rats", "test": "Rat model of hand-foot syndrome caused by capecitabine, gel application", "format": "in vivo", "details": "rats, capecitabine 4000 mg/kg once daily, 40 days; for inhibition in vivo at 3 % / inhibition in vivo at 1 % / inhibition in vivo at 5 %: Rattus norvegicus, topical, 960 h", "summary_of_the_method": "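Female SD rats (~200 g, n=10/group) were given daily oral capecitabine (castor oil/ethanol 1:1, diluted with PBS). Thymidine derivative gel, alone or combined with uridine derivative, or blank gel was applied to both hind paws for ~4 h daily until blank controls developed hand-foot syndrome. Control rate was blank incidence minus treated incidence; paws were also examined by HE and IHC.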"}, "[2]": {"test_system": "hand-foot syndrome caused by capecitabine in Balb/c mice", "test": "Mouse model of hand-foot syndrome caused by capecitabine, gel application or oral administration", "format": "in vivo", "details": "capecitabine 1000 mg/kg once daily; for Control Rate Forepaws / Control Rate Hindpaws: 15 days; for inhibition in vivo at 300 mg/kg / inhibition in vivo at 250 mg/kg: Mus musculus, 192 h, 8 days; for inhibition in vivo at 300 mg/kg: oral 300 mpk twice per day; for inhibition in vivo at 250 mg/kg: oral 250 mpk twice per day", "protocol": "A mouse animal model was established. 6-week aged male Balb/c mice were administered with capecitabine by daily gavage. After a few days, mice's paws developed hand-foot syndrome symptoms (similar to the results of the rat model, such as, in FIG. 13). Similar to the human body, mice developed hand-foot syndrome in the forepaws and hind paws after oral administration of capecitabine. The causes of the two are the same, and the disorder is also very similar. Therefore, mice are very good animal models for simulating the hand-foot syndrome caused by capecitabine.\nAfter Balb/c mice were fed and adapted for one week (about 20 g), the mice were divided into groups, with 10 mice in each group. Then, the mice were subject to gavage administration. Capecitabine was dissolved in normal saline with pH=8, and the gavage dose was not greater than 0.3 mL at each time. After gavage, the blank gel was applied to the forepaws and the hind paws (about 4*0.5 cm*0.5 cm) in group of blank gel, and gels containing different drugs were applied to the forepaws and the hind paws (about 4*0.5 cm*0.5 cm) in group of administration. After application, the mice were fixed in Elizabethan collar for 4 hours. After 4 hours, the mice were released, wiped with clean water to remove any residual drug at the application site, and allowed back to the cage. The gavage and application tests are repeated daily until the group of blank has developed obvious hand-foot syndrome. […] Additionally, the thymidine derivative and the combination of thymidine derivative and uridine derivative were orally administered for observing the relief of the hand-foot syndrome. In examples 41-48, thymidine derivative and/or uridine derivative were/was applied, and in examples 49-52, thymidine derivative and/or uridine derivative were/was administered orally.\nTable 5 lists the combinations of animal experiments of capecitabine and thymidine derivative (or a combination of thymidine derivative and uridine derivative) and the corresponding experimental results (wherein the data in the column of control rate=the occurrence rate of hand-foot syndrome in group of blank—the occurrence rate of hand-foot syndrome in group of administration).\nThe effect of thymidine derivative or a combination of thymidine derivative and uridine derivative on a mouse model with chemotherapeutic drug (capecitabine)-induced hand-foot syndrome was tested according to the method in Examples 41-52. Wherein, the drugs were administered transdermally for Examples 119-120 and orally for Examples 121-123.\nThe test thymidine derivative or the combination of thymidine derivative and uridine derivative, as well as the final concentration of the test compounds were shown in Table 9. Table 9 lists the combinations of animal experiments of capecitabine and the thymidine derivative gel (or a compounded gel of thymidine derivative and uridine derivative) and the corresponding experimental results (wherein the data in the column of control rate=the occurrence rate of hand-foot syndrome in Group of blank—the occurrence rate of hand-foot syndrome in Group of administration)."}, "[3]": {"test_system": "pain in capecitabine hand-foot syndrome rats", "test": "Pain of hand-foot syndrome, mechanical sensitivity in rats (von Frey)", "format": "in vivo, rat", "details": "capecitabine 4000 mg/kg hand-foot syndrome rats; thymidine derivative 3%", "protocol": "According to the method of Examples 91-115, after administration of a thymidine derivative (at a concentration of 3%) and co-administration of a thymidine derivative (at a concentration of 1%) with a uridine derivative (at a concentration of 3%) to rat hand-foot syndrome models constructed from 4000 mg/kg of capecitabine for a period of time, pain analysis was performed on the rats, and the pain assessment model was mechanical sensitivity in rats (von Frey). The experimental steps were as follows: first, the rats were allowed to adapt in the room for 1 hour, then the rats were placed in an observation box with a metal mesh floor, and the mice were allowed to stay in the box for 20 minutes to adapt to the experimental platform. Next, a von Frey device was used to detect paw pain by stimulating the surface of the rat's palm with specially designed cilia to detect the mechanical sensitivity of the animal at strength of 0.4 g, 0.8 g, 1.5 g, 2.5 g, 4 g, 8 g, 10 g and 20 g (IITC Life Science, Woodland Hills, 2390 series). […] The rat movement response was considered to be a vague response, in which case the stimulation experiment was repeated."}, "[4]": {"details": "read-out: Control Rate Forepaws"}, "[5]": {"details": "read-out: Control Rate Hindpaws"}}, "note": "Like-named read-outs stand apart in the source and are kept apart here."}
{"smiles": "Cc1cn([C@H]2C[C@H](O)[C@@H](COC(=O)C(C)c3cccc(Oc4ccccc4)c3)O2)c(=O)[nH]c1=O", "note": "(stereo partly drawn) [T27, ((2R,3S, 5R)-3-hydroxyl-5-(5-methyl-2,4-dioxy-3,4-dihydropyrimidin-1(2H)-yl)tetrahydrofuran-2-yl)2-(3-phenoxyphenyl)propionate Methyl]", "values": [{"measurement": "Control Rate Forepaws", "setting": "[1]; gel 0.10 wt%", "result": 22.22, "unit": "%"}, {"measurement": "Control Rate Hindpaws", "setting": "[1]; gel 0.10 wt%", "result": 44.44, "unit": "%"}, {"measurement": "Control Rate Forepaws", "setting": "[1]; gel 0.50 wt%", "result": 33.33, "unit": "%"}, {"measurement": "Control Rate Hindpaws", "setting": "[1]; gel 0.50 wt%", "result": 33.33, "unit": "%"}, {"measurement": "Control Rate Forepaws", "setting": "[1]; gel 1 wt%", "result": 25, "unit": "%"}, {"measurement": "Control Rate Hindpaws", "setting": "[1]; gel 1 wt%", "result": 50, "unit": "%"}, {"measurement": "Control Rate Forepaws", "setting": "[1]; gel 3 wt%", "result": 57.14, "unit": "%"}, {"measurement": "Control Rate Hindpaws", "setting": "[1]; gel 3 wt%", "result": 71.43, "unit": "%"}, {"measurement": "Control Rate Forepaws", "setting": "[1]; gel 5 wt%", "result": 50, "unit": "%"}, {"measurement": "Control Rate Hindpaws", "setting": "[1]; gel 5 wt%", "result": 75.00, "unit": "%"}, {"measurement": "Control Rate Forepaws", "setting": "[2]; transdermal 1% (wt %)", "result": 50, "unit": "%"}, {"measurement": "Control Rate Hindpaws", "setting": "[2]; transdermal 1% (wt %)", "result": 62.50, "unit": "%"}, {"measurement": "Control Rate Forepaws", "setting": "[2]; transdermal 3% (wt %)", "result": 42.86, "unit": "%"}, {"measurement": "Control Rate Hindpaws", "setting": "[2]; transdermal 3% (wt %)", "result": 71.43, "unit": "%"}, {"measurement": "pain in rats (von Frey mechanical sensitivity)", "setting": "[3]", "result": "could significantly improve pain in rats"}]}
{"smiles": "Cc1cn([C@H]2C[C@H](O)[C@@H](COC(=O)[C@H](C)c3ccc(CC(C)C)cc3)O2)c(=O)[nH]c1=O", "note": "[T32]", "values": [{"measurement": "inhibition in vivo at 3 %", "setting": "[1]; gel 3 wt%, read-out: Control Rate Forepaws", "result": 37.5, "unit": "%"}, {"measurement": "inhibition in vivo at 3 %", "setting": "[1]; gel 3 wt%, read-out: Control Rate Hindpaws", "result": 62.5, "unit": "%"}, {"measurement": "inhibition in vivo at 300 mg/kg", "setting": "[2]; [4]", "result": 71.4, "unit": "%"}, {"measurement": "inhibition in vivo at 300 mg/kg", "setting": "[2]; [5]", "result": 57.1, "unit": "%"}, {"measurement": "pain in rats (von Frey mechanical sensitivity)", "setting": "[3]", "result": "could significantly improve pain in rats"}]}
{"smiles": "Cc1ccc(C(=O)c2ccc(CC(=O)O[C@H]3C[C@H](n4cc(C)c(=O)[nH]c4=O)O[C@@H]3CO)n2C)cc1", "note": "[T45]", "values": [{"measurement": "inhibition in vivo at 1 %", "setting": "[1]; gel 1 wt%, read-out: Control Rate Forepaws", "result": 25, "unit": "%"}, {"measurement": "inhibition in vivo at 1 %", "setting": "[1]; gel 1 wt%, read-out: Control Rate Hindpaws", "result": 37.5, "unit": "%"}, {"measurement": "inhibition in vivo at 5 %", "setting": "[1]; gel 5 wt%, read-out: Control Rate Forepaws", "result": 55.6, "unit": "%"}, {"measurement": "inhibition in vivo at 5 %", "setting": "[1]; gel 5 wt%, read-out: Control Rate Hindpaws", "result": 77.8, "unit": "%"}, {"measurement": "inhibition in vivo at 250 mg/kg", "setting": "[2]; [4]", "result": 57.1, "unit": "%"}, {"measurement": "inhibition in vivo at 250 mg/kg", "setting": "[2]; [5]", "result": 42.9, "unit": "%"}, {"measurement": "pain in rats (von Frey mechanical sensitivity)", "setting": "[3]", "result": "could significantly improve pain in rats"}]}
